# Assay results reported in EP1243271A1, “NASAL DROPS CONTAINING FUSED PYRIDAZINE DERIVATIVES” (Takeda Chemical Industries, Ltd., priority 1999, dated 2001).
# What was measured:
# Male Hartley guinea pigs = assay: Effect on histamine-induced increases in microvascular permeability in skin in guinea pigs; assay type: in vivo; details: Cavia porcellus; 3 mg/kg oral administration 1 hour before histamine; guinea pig skin
# Description: Male Hartley guinea pigs weighing about 500 g were used. After the dorsal hair was shaved under ether anesthesia, 1 ml of a 2.5% pontamine sky blue solution was injected intravenously, and then 0.1 ml of histamine at 3 µg/ml was injected intradermally into 2 sites (left and right) in the back. Thirty minutes after the injection of histamine, animals were fainted by knocking in the head, decapitated and killed by bleeding, after which the skin of the back was removed. The long and short diameters (mm) of each blue spot were measured and multiplied; the mean product was taken as the vascular permeability index. Test compounds were suspended in a 5% gum arabic solution and orally administered in a volume of 0.2 ml/100 g body weight at 1 hour before histamine administration. Animals in the control group received the same volume of a 5% gum arabic solution. Equation 1 Inhibition (%) of histamine-induced increases in microvascular permeability in skin = 100 × (1-vascular permeability index in the presence of drug/vascular permeability index in control group) [formula]
# Guinea Pig Eosinophils = assay: Suppression of LTB4-induced chemotactic reaction of guinea pig eosinophils; assay type: cell-based, guinea pigs; details: Cavia porcellus, Eosinophil, test drug 1 × 10^-5 M, LTB4 10^-8 M, read-out: Suppression Rate (%)
# Description: To male Hartley guinea pigs, 2 ml of equine serum (Bio-Whittaker, Inc.) was intraperitoneally administered once weekly for 8 consecutive weeks. At 48 hours after final administration, 75 ml of physiological saline was intraperitoneally injected, after which the recovered solution was centrifuged at 400 × g for 5 minutes. The resulting sediment was suspended in 5 ml of Percoll solution (density d=1.07) and layered on top of the discontinuous density layer of Percoll solution (density d=1.112, 5 ml; d=1.095, 10 ml; d=1.090, 10 ml; d=1.085, 5 ml), followed by centrifugation at 1,000 × g for 25 minutes (20°C). The cell layer formed at the interface between density d= 1.112 and density d=1.095 was collected. Erythrocytes present in the collected cell sediment were removed by hypotonic treatment (suspended in water for […]).
# The cell sediment was washed 3 times with Hanks' solution containing 10 mM Hepes (Dojin Kagaku) (Hanks-Hepes) and suspended in a Hanks-Hepes solution containing 2% human serum albumin (Wako Pure Chemical Industry or Sigma) (Hanks-Hepes-HSA) to a concentration of 5.56×10^6 cells/ml. Eosinophil purity was 90%, viability was over 98%.
# To a 24-well culture dish, which serves as a lower chamber, 600 µl of Hanks-Hepes-HSA solution containing LTB4 (final concentration 10^-8 M, Cascade Biochemical Ltd.), was transferred, followed by incubation at 37°C for 30 minutes in a carbon dioxide incubator. Separately, 200 µl of eosinophil suspension (5×10^6 cells/ml), previously incubated at 37°C for 15 minutes, was added to Chemotaxicell (polycarbonate membrane, pore size 3 µm, thickness 10 µm), which serves as an upper chamber, after the upper chamber was attached to the 24-well culture dish. After 2 hours of reaction in the carbon dioxide incubator, the Chemotaxicell was removed; 60 µl of 2% (w/v) EDTA solution in physiological saline was added to the liquid in the lower chamber. After ice-cooling, the cells migrating into the inner solution of the lower chamber were counted using a blood cell counter [Coulter Counter (trade name)]. The test drug, dissolved in N,N-dimethylformamide (DMF), was added to both the upper and lower chambers to a final concentration of 10^-5 M. Equation 2 Chemotactic reaction suppression rate = [1-(number of migrating cells in the presence of drug/number of migrating cells in the absence of drug)] × 100 [formula] suppression rates of LTB4 -induced chemotactic reaction by test drug (1 × 10^-5 M concentration) were calculated.
# guinea pig = assay: Effect on intranasal pressure and pituita (nasal) secretion after histamine aerosol, nasal administration; assay type: in vivo
# Description: Animals were anesthetized with pentobarbital sodium (30 mg/kg, i.p.), and the compound of Reference Example B135 and solvent (0.1% sodium dihydrogenphosphate + 0.1% Tween 80) were administered into the both nasal cavities of guinea pig in 20 µL. The animals underwent the following test in about 0.5 hour.
# The animals under anesthesia was held in the supine position. The neck was opened by median incision to expose the air tube. For maintenance of respiration, a polyethylene tube was inserted down into the air tube. Another polyethylene tube was inserted from the air tube incision into the rhinopharynx, and connected to a respirator via a silicon tube, through which the air was supplied into the nasal cavity at a volume of 4 mL/stroke and a frequency of 70 strokes/min. To prevent the air leak into the oral cavity, incisive canal was closed with Aron alfa A (trademark, Sankyo, Tokyo). The intranasal pressure was measured with a transducer connected to a side branch of the tube inserted into the nasal cavity. Histamine 1000 µg/mL solution was aerosolized using an ultrasonic nebulizer provided between the respirator and the tube in the nasal cavity, and the air was supplied into the nasal cavity for 3 minutes. After the histamine air supply, the intranasal pressure was depicted on an oscillograph for 15 minutes and the area under the curve was determined.
# The pituita flowed out from the nasal cavity or pooled in the nasal cavity during the 15 minutes after histamine air supply was wiped with a cotton swab, which was weighed on an electronic weighing machine.
# Where necessary, aerosolized physiological saline as a negative control was supplied into the nasal cavity, and the intranasal pressure and nasal secretion were measured.
# histamine H1 receptor = target: T1, histamine H1 receptor (Cavia porcellus, UniProt P31389); assay: Penetrability into the brain: ex vivo binding test with tritium-labeled pyrilamine in brain and lung membrane fractions; set-up: species or system guinea pigs
# T1 construct: The cerebral cortex and lung tissues were removed and homogenized in phosphate buffer solution; from tissue; host or cells: cerebral cortex and lung crude membrane fractions of male Hartley guinea pigs
# Description: The compound of Reference Example B135 was orally administered (10 or 100 mg/kg) to male Hartley guinea pigs and, one hour later, the guinea pigs were slaughtered by decapitation. The cerebral cortex and lung tissues were removed and homogenized in phosphate buffer solution, followed by centrifugation at 4°C and 1000×g for 10 minutes. The supernatant was further centrifuged at 5000×g for 10 minutes to give crude membrane fractions. The membrane fractions were suspended in a buffer and, after adjusting the protein concentration to 1.0 mg/mL, subjected to binding test with tritium-labeled pyrilamine (2 nM). The inhibitory action on ex vivo binding test measured specific binding of pyrilamine in the brain and lung membrane fractions was calculated and used as an index of selectivity to peripheral histamine H1 receptor in the body upon oral administration of the agent.
# [1] = 0.1% solution, nasal, 20 µL, histamine 1000 µg/mL aerosol
# [2] = 1.0% solution, nasal, 20 µL, histamine 1000 µg/mL aerosol
# T1 sequence (P31389 whole entry): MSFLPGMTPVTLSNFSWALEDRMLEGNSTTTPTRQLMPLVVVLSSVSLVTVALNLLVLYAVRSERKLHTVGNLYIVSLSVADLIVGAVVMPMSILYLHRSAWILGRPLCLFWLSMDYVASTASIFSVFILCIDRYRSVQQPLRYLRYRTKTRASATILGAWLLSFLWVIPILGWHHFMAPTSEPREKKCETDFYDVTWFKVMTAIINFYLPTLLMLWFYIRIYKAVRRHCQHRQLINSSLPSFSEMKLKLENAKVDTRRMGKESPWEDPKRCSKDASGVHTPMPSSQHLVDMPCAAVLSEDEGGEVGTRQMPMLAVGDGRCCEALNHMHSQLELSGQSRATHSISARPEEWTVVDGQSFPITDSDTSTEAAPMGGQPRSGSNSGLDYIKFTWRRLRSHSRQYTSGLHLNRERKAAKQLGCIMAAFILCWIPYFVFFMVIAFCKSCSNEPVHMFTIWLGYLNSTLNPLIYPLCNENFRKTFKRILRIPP
structure (smiles),measurement,setting,value
"c1ccc(C(OC2CCN(CCCNc3ccc4ncnn4n3)CC2)c2ccccc2)cc1 [Reference Example B6, 6-[3-[4-(diphenylmethoxy)piperidino]-propylamino][1,2,4]triazolo[1,5-b]pyridazine]",inhibition in vivo at 3 mg/kg,Male Hartley guinea pigs,91%
same,inhibition at 10 µM,Guinea Pig Eosinophils,64%
"Cc1nc2ccc(NCCCN3CCC(OC(c4ccccc4)c4ccccc4)CC3)nn2n1 [Reference Example B20, 6-[3-[4-(diphenylmethoxy)piperidino]-propylamino]-2-methyl[1,2,4]triazolo[1,5-b]pyridazine]",inhibition in vivo at 3 mg/kg,Male Hartley guinea pigs,92%
same,inhibition at 10 µM,Guinea Pig Eosinophils,61%
"CC(C)(C(=O)O)c1cn2nc(OCCCN3CCC(OC(c4ccccc4)c4ccccc4)CC3)ccc2n1 [Reference Example B45, 2-[6-[3-[4-(diphenylmethoxy)piperidino]-propoxy]imidazo[1,2-b]pyridazin-2-yl]-2-methylpropionic acid]",inhibition in vivo at 3 mg/kg,Male Hartley guinea pigs,91%
"CC(C)(C(=O)O)c1cn2nc(NCCCN3CCC(OC(c4ccccc4)c4ccccc4)CC3)ccc2n1.O.O [Reference Example B135, 2-[6-[3-[4-(diphenylmethoxy)piperidino]-propylamino]imidazo[1,2-b]pyridazin-2-yl]-2-methylpropionic acid dihydrate]",inhibition in vivo at 3 mg/kg,Male Hartley guinea pigs,91%
same,percent inhibition of increase in intranasal pressure by nasal administration of 0.1% solution,guinea pig; [1],70%
same,percent inhibition of nasal secretion by nasal administration of 0.1% solution,guinea pig; [1],72%
same,percent inhibition of increase in intranasal pressure by nasal administration of 1.0% solution,guinea pig; [2],62%
same,percent inhibition of nasal secretion by nasal administration of 1.0% solution,guinea pig; [2],78%
same,increase in the intranasal pressure and nasal secretion,guinea pig; conclusion from Tables 3 and 4,reduced increase in the intranasal pressure and nasal secretion
same,penetrability into the brain,histamine H1 receptor; conclusion from Tables 5 and 6,poor penetrability into the brain
same,percent inhibition of specific binding of membrane fraction pyrilamine in brain,"histamine H1 receptor; oral administration of 10 mg/kg, one hour later, brain (cerebral cortex)",-2.9%
same,percent inhibition of specific binding of pyrilamine in lung membrane fraction,"histamine H1 receptor; oral administration of 10 mg/kg, one hour later",95%
same,percent inhibition of specific binding of pyrilamine in brain membrane fraction,"histamine H1 receptor; oral administration of 100 mg/kg, one hour later, brain (cerebral cortex)",44%
same,percent inhibition of specific binding of pyrilamine in lung membrane fraction,"histamine H1 receptor; oral administration of 100 mg/kg, one hour later",95%
